Reference: BindingDB's records for patent US10364255 (Boehringer Ingleheim International, 2019)

Target: T1, Pantetheinase [T26I] (Homo sapiens, UniProt O95497, T26I)
T1 construct: gene VNN1
Experiment: Enzymatic Assay
Experimental: Method 1:Vanin-1 Enzymatic Assay:The test compounds are dissolved in 100% DMSO at a concentration of 10 mM and in a first step diluted in DMSO to a concentration of 5 mM, followed by serial dilution steps in 100% DMSO. Dilution factor and number of dilution steps may vary according to needs. Typically 8 different concentrations by 1:5 dilutions are prepared, a further intermediate dilutions of the substances is carried out with assay buffer resulting in 1% final DMSO concentration in the assay. 0.15 nM of FLAG-tagged Vanin-1 (AA 22-493, T26I, produced internally) and test compounds are incubated at room temperature for 15 minutes in assay buffer (1 mM DTT, 0.0025% Brij-35, 50 mM HEPES, pH7.5). 3 μM D-Pantethine (Sigma, Cat#P2125-5G) in assay buffer is added and incubated for additional 30 minutes at room temperature. Reaction is stopped by adding equal volume of stop solution as the reaction mixture to reach 5 nM Nevirapine (as an internal standard) and 0.5% TFA. Assay plates are centrifuged for 2 minutes and the formation of pantothenic acid is detected by RapidFire Mass Spectrometry (mobile phase A: 0.1% formic acid in water, mobile phase B: 100% methanol) using graphitic carbon cartridge (Agilent Cat #G9206A).

T1 sequence (O95497 22-491 T26I limits assumed): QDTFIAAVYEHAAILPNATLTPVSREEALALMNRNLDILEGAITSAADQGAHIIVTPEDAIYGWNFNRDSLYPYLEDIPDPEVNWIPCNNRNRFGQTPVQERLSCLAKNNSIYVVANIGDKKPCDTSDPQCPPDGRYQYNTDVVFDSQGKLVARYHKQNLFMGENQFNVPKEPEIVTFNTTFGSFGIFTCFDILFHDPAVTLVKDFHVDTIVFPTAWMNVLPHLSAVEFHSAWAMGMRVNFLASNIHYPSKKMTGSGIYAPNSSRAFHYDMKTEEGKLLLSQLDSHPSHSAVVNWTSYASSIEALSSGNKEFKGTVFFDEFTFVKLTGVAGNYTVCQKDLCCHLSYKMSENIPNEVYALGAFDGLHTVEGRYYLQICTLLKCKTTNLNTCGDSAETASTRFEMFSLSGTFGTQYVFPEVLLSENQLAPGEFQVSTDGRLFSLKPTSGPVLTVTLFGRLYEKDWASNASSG

Row | IC50 [nM] | Compound
1 | 1.7 | CC(=O)N(C)[C@H]1CCN(C(=O)c2cnc3c(c2)OCCCN3)C1 [US10364255, Ex. 44]
2 | 8.1 | CC(=O)N(C)[C@H]1CCN(C(=O)c2cnc3c(c2)OCCN3)C1 [US10364255, Ex. 39]
3 | 1.3 | CC(=O)N(C)[C@H]1CCN(C(=O)c2cnc3c(c2)O[C@H](C)CN3)C1 [US10364255, Ex. 32]
4 | 2800 | O=C(c1cnc2c(c1)OCCN2)N1CCCCC1 [US10364255, Ex. 3]
5 | 2.5 | CC(=O)N(C)[C@H]1CCN(C(=O)c2cnc3c(c2)O[C@H](CO)CN3)C1 [US10364255, Ex. 41]
6 | 3.7 | O=C(c1cnc2c(c1)O[C@H](CO)CN2)N1CCC(c2ccncc2)C1 (stereo partly drawn) [US10364255, Ex. 43]
7 | 14.2 | O=C(c1cnc2c(c1)OCCN2)N1CCC(c2ccncc2)C1 (stereo not drawn) [US10364255, Ex. 38]
8 | 0.5 | CC(=O)N(C)[C@H]1CCN(C(=O)c2cnc3c(c2)OCC(C)(C)N3)C1 [US10364255, Ex. 14]
